{"source": "patent US20070190628A1", "about": "“Yeast food composition for fuel ethanol production” (priority 2006, published 2007)", "format_in_all_cases": "cell-based, Saccharomyces cerevisiae", "key": {"active dry yeast “z” [1]": {"tested_on": "active dry yeast “z”", "experiment": "Individual nutritive elements added to normal gravity corn mash: fermentation rate and viable cell numbers", "method": "Normal gravity corn mash was prepared using ground #2 yellow dent corn obtained from Commercial Alcohols Inc. (275 Bloomfield Road, Chatham, Ontario, Canada N7M 5J5). […] One part by weight of ground corn was dispersed into three parts of 50° C., sterile dH2O containing 1 mM CaCl2.2H2O. To minimize the development of excessive viscosity during gelatinization, 1.25 mL of high temperature (HT-2X) α-amylase such as was supplied by Alltech Inc. in Nicholasville, Ky., USA (HT-2X α-amylase is no longer available from Alltech), was added per litre of mash as the ground corn was dispersed. It should be noted that if Ca-independent alpha amylases are used such as Termamyl® SC supplied by Novozymes North America in Franklinton, N.C., USA, then the 1 mM CaCl2.2H2O is not required. Following the addition of the ground corn and a five-minute mixing period to produce a homogenous mixture, the temperature was increased until the mash reached 94° C. where it was held at this temperature for 60 min with continued stirring. The temperature of the gelatinized starch was then reduced to 80° C. and liquefied by a second dose of HT-2X αx-amylase (1.25 mL/L) with continued stirring for 30 min. Sterile Celstir® (Wheaton Scientific, Millville, N.J.) fermentor vessels were filled with 1 L aliquots of this mash. To each fermentor vessel, filter-sterilized (25 mm, 0.2 μm Acrodisc® syringe filter, Pall Corporation, Ann Arbor, Mich.) urea (Fisher Scientific, Co., NJ), was added to achieve a final concentration of 8 mM. Cold-sterilization of the mash was assured by the addition of 100 μL of diethyl pyrocarbonate (DEPC, Sigma Chemical Co.) per litre of mash mixing the mash mechanically (IKA-Labortechnik, Staufen, Germany) for 5-10 min followed by cooling the fermentor vessels at 4° C. cold room for ˜72 hrs. The fermentor vessels were then removed from the cold room, connected to 30° C. water bath circulators and mixed. Glucoamylase in the form of Allcholase II 400 supplied by Alltech Inc. was then added (1.5 mL/L mash) 30 min prior to yeast inoculation to initiate saccharification of the dextrins formed during gelatinization and liquefaction (it should be noted that Allcholase II 400 is no longer available and any glucoamylase may be used). The mash thus prepared contained 19-20 g of dissolved solids/100 mL of mash as determined by a digital density meter analyzer (model DMA-45, Anton Paar KG, Graz, Austria) maintained at 20° C.\nEleven grams of a commercially available active dry yeast, designated as “z”, were rehydrated by dispersal in 99 mL of preheated 38° C., 0.1% (w/v) sterile water and incubation for 20 min with periodic shaking in a 38° C. water bath. Fermentor vessels containing normal density corn mash were prepared as described above and inoculated with sufficient active yeast to provide an initial viable cell count of 1×10^7 cells per mL mash. The optimal fermentation temperature for the active dry yeast “z” was determined by conducting fermentations at 30°, 34°, 36°, 38°, and 40° C.\nThe effects of individual elements on yeast cell biomass production and fermentation in a fermentation feedstock were assessed by separately supplementing of corn mash with nitrogen, phosphorus, magnesium, sulphur and zinc. Nitrogen effects were assessed in corn mashes by the additions of urea to provide final concentrations in the mash of […]. Phosphorus effects were assessed in corn mashes amended with 16 mM urea, by the additions of (NH4)2HPO4 (BDH Chemicals Inc, Toronto, Ont., MW: 132.06) to provide final concentrations of 0, 0.1, 0.2, 0.4, 0.6, and 0.8 g of (NH4)2HPO4/L of mash. Magnesium effects were assessed in corn mashes amended with 16 mM urea, by the additions of MgSO4.7H2O (BDH Chemicals Inc., MW. 246.48) to provide final concentrations of 0, 0.025, 0.049, 0.074, 0.099, 0.148, 0.197 g of MgSO4.7H2O/L of mash. […]"}, "active dry yeast “y”": {"tested_on": "active dry yeast “y”", "experiment": "Fermentation performance of commercial active dry yeasts in normal gravity corn mash", "settings": "strain “y”", "method": "(§1) The effects of the defined urea plus salts-based yeast food on fermentation performance of seven commercial active dry yeasts currently used by the fuel alcohol industry (Bellisimi et al., 2005, Am. Soc. Brew. Chem. J. Vol. 63, pp. 107-112) and designated herein as strains “b”, “d”, “e”, “w”, “x”, “y”, and “z”, were assessed in normal gravity corn mash prepared as described in Example 1. The commercial active dry yeasts were assessed with the following corn mash supplanted as follows: (a) 8 mM urea (control), or (b) 1% yeast extract, or (c) 8 mM urea supplemented with the defined urea plus salts yeast food of the present invention. The fermentation methods were followed as outlined in Example 4. Fermentation rates were determined by repeated sampling and sample processing at specific time intervals as described in Example 1."}, "active dry yeast “e”": {"tested_on": "active dry yeast “e”", "experiment": "Fermentation performance of commercial active dry yeasts in normal gravity corn mash", "settings": "strain “e”", "method": "as §1"}, "active dry yeast “z” [2]": {"tested_on": "active dry yeast “z”", "experiment": "Fermentation performance of commercial active dry yeasts in normal gravity corn mash", "settings": "strain “z”", "method": "as §1"}, "active dry yeast “w”": {"tested_on": "active dry yeast “w”", "experiment": "Fermentation performance of commercial active dry yeasts in normal gravity corn mash", "settings": "strain “w”", "method": "as §1"}, "active dry yeast “d”": {"tested_on": "active dry yeast “d”", "experiment": "Fermentation performance of commercial active dry yeasts in normal gravity corn mash", "settings": "strain “d”", "method": "as §1"}, "active dry yeast “x”": {"tested_on": "active dry yeast “x”", "experiment": "Fermentation performance of commercial active dry yeasts in normal gravity corn mash", "settings": "strain “x”", "method": "as §1"}, "active dry yeast “b”": {"tested_on": "active dry yeast “b”", "experiment": "Fermentation performance of commercial active dry yeasts in normal gravity corn mash", "settings": "strain “b”", "method": "as §1"}, "[3]": {"settings": "complete disappearance of 20 g of dissolved solids/100 mL"}}, "data": [{"smiles": "NC(N)=O", "note": "[urea]", "values": [{"measurement": "highest yeast cell counts", "setting": "active dry yeast “z” [1]; corn mash with 8 mM and 16 mM urea", "result": "3.3×10^8 CFU/mL"}, {"measurement": "increase of cell numbers", "setting": "active dry yeast “z” [1]; corn mash with 8 mM and 16 mM urea, versus no urea", "result": 50, "unit": "%"}, {"measurement": "increase of the rate of dissolved solids utilization", "setting": "active dry yeast “z” [1]; urea 16-32 mM in corn mash, 30° C.", "result": "approximately 2 fold"}, {"measurement": "urea supplementation rate at which the maximum fermentation rate was observed", "setting": "active dry yeast “z” [1]; urea tested up to 32 mM", "result": 16, "unit": "mM"}, {"measurement": "Fermentation rate", "setting": "active dry yeast “y”; normal gravity corn mash", "result": "0.83 ± 0.01", "unit": "g/100 mL/hr"}, {"measurement": "Fermentation time", "setting": "active dry yeast “y”; [3]", "result": 48, "unit": "h"}, {"measurement": "Fermentation rate", "setting": "active dry yeast “e”; normal gravity corn mash", "result": "0.67 ± 0.01", "unit": "g/100 mL/hr"}, {"measurement": "Fermentation time", "setting": "active dry yeast “e”; [3]", "result": 72, "unit": "h"}, {"measurement": "Fermentation rate", "setting": "active dry yeast “z” [2]; normal gravity corn mash", "result": "0.79 ± 0.01", "unit": "g/100 mL/hr"}, {"measurement": "Fermentation time", "setting": "active dry yeast “z” [2]; [3]", "result": 48, "unit": "h"}, {"measurement": "Fermentation rate", "setting": "active dry yeast “w”; normal gravity corn mash", "result": "0.82 ± 0.02", "unit": "g/100 mL/hr"}, {"measurement": "Fermentation time", "setting": "active dry yeast “w”; [3]", "result": 48, "unit": "h"}, {"measurement": "Fermentation rate", "setting": "active dry yeast “d”; normal gravity corn mash", "result": "0.74 ± 0.03", "unit": "g/100 mL/hr"}, {"measurement": "Fermentation time", "setting": "active dry yeast “d”; [3]", "result": 48, "unit": "h"}, {"measurement": "Fermentation rate", "setting": "active dry yeast “x”; normal gravity corn mash", "result": "0.80 ± 0.06", "unit": "g/100 mL/hr"}, {"measurement": "Fermentation time", "setting": "active dry yeast “x”; [3]", "result": 48, "unit": "h"}, {"measurement": "Fermentation rate", "setting": "active dry yeast “b”; normal gravity corn mash", "result": "0.73 ± 0.04", "unit": "g/100 mL/hr"}, {"measurement": "Fermentation time", "setting": "active dry yeast “b”; [3]", "result": 72, "unit": "h"}]}]}
